How the values were obtained:
Type in all cases: cell-based, Human
Settings in all cases: LPS 0.1 ng/mL
IL-12p40 = assay: Cytokine expression in PBMC supernatants (Luminex multiplex): IL-12p40
Method: (§1) An exemplary natural-based composition is evaluated in an in vitro Peripheral Blood […] Cells cellular inflammation model.
(§2) Test Item Preparation: 120 mg of the exemplary composition (Project Shield) was dissolved in 6000 μL of CGM on the day of use to create a 2% (w/v) Dilution Stock Solution. A 2 ng/mL Working Stock of Lipopolysaccharides (“LPS”) was prepared fresh with IM and stored at 2-8° C. 10 μL LPS (2 ng/mL) was added to the appropriate wells for a final concentration of 0.1 ng/mL.
(§3) Complete Growth Media (CGM): To formulate CGM, RPMI was supplemented with 10% FBS and 100 U/mL penicillin+100 μg/mL streptomycin. CGM was prepared aseptically and stored at 2-8° C. for the duration of the study. CGM was warmed to 37° C. prior to use.
(§4) Cell Culture Set-up: Cells were thawed according to manufacturer's instructions, washed in CGM and assessed for viability using trypan blue staining. A stock cell solution of 2×10^6 cells/mL suspended in CGM was prepared. 100 μL of the stock solution was added to appropriate wells of a 96-well plate to seed 2×10^5 cells per well. […]
(§5) As illustrated in FIGS. 1-8, inflammatory cytokine expression for cell supernatants at 48 hours post stimulation/treatment. Expression was assessed by multiplex using the Luminex platform for the following cytokines: IFNγ, IL-1β, IL-6, IL-8, IL-10, IL-12p40, IL-12p70, TNF-α. […]

IL-1β = assay: Cytokine expression in PBMC supernatants (Luminex multiplex): IL-1β
Method: as §1, §2, §3, §4, §5

IL-8 = assay: Cytokine expression in PBMC supernatants (Luminex multiplex): IL-8
Method: as §1, §2, §3, §4, §5

IFNγ = assay: Cytokine expression in PBMC supernatants (Luminex multiplex): IFNγ
Method: as §1, §2, §3, §4, §5

IL-6 = assay: Cytokine expression in PBMC supernatants (Luminex multiplex): IL-6
Method: as §1, §2, §3, §4, §5

IL-10 = assay: Cytokine expression in PBMC supernatants (Luminex multiplex): IL-10
Method: as §1, §2, §3, §4, §5

IL-12p70 = assay: Cytokine expression in PBMC supernatants (Luminex multiplex): IL-12p70
Method: as §1, §2, §3, §4, §5

TNF-α = assay: Cytokine expression in PBMC supernatants (Luminex multiplex): TNF-α
Method: as §1, §2, §3, §4, §5

Lipopolysaccharides [LPS]
IL-12p40, LPS control Group vs Media Control (IL-12p40; donor 1, 48 h): significantly increased | IL-12p40, LPS control Group vs Media Control (IL-12p40; donor 2, 48 h): significantly increased | IL-1β, LPS control Group vs Media Control (IL-1β; donor 1, 48 h): not significantly increased | IL-1β, LPS control Group vs Media Control (IL-1β; donor 2, 48 h): not significantly increased | IL-8, LPS control Group vs Media Control (IL-8; donor 1, 48 h): not donor 1 | IL-8, LPS control Group vs Media Control (IL-8; donor 2, 48 h): significantly increased | IFNγ, LPS control Group vs Media Control (IFNγ; donor 1, 48 h): significantly increased | IFNγ, LPS control Group vs Media Control (IFNγ; donor 2, 48 h): significantly increased | IL-6, LPS control Group vs Media Control (IL-6; donor 1, 48 h): significantly increased | IL-6, LPS control Group vs Media Control (IL-6; donor 2, 48 h): significantly increased | IL-10, LPS control Group vs Media Control (IL-10; donor 1, 48 h): significantly increased | IL-10, LPS control Group vs Media Control (IL-10; donor 2, 48 h): not donor 2 | IL-12p70, LPS control Group vs Media Control (IL-12p70; donor 1, 48 h): significantly increased | IL-12p70, LPS control Group vs Media Control (IL-12p70; donor 2, 48 h): significantly increased | TNF-α, LPS control Group vs Media Control (TNF-α; donor 1, 48 h): not donor 1 | TNF-α, LPS control Group vs Media Control (TNF-α; donor 2, 48 h): significantly increased

Reference: patent US12186358B2, “Compositions and methods for supporting immune health” (Plexus Worldwide, LLC, priority 2021, dated 2025)
